From US4529589A, “Pharmaceutical composition for the treatment of diabetes mellitus” (priority 1981, dated 1985)

Columns and labels:
[1] = tested on: volunteer patients-physicians; test: sugar curve after glucose load per os (0.7 g/kg) in volunteers; type: in vivo, human; conditions: for decrease in the blood sugar level as compared to the control sugar curve: subcutaneous 16 units (after volunteer I.)
Protocol: The pharmaceutical preparation for the treatment of diabetes mellitus has been studied on volunteer patients-physicians. The experiments have been performed on 8 volunteers. 58 tests were carried out including 9 control tests without administration of insulin, 6 control tests with subcutaneous administration of insulin and 43 experimental tests with the administration of plates of the preparation according to the present invention. The control investigation--a sugar curve--has been taken for every volunteer. This involved determination of the blood sugar level in an empty stomach, whereafter the patient was administered glucose per os at the rate of 0.7 g/kg of the body weight diluted with 200 ml of warm water and then the blood sugar level was determined after 30, 60 and 120 minutes. Therefore, in this manner, the blood sugar level variations were determined under the effect of administration of gluclose including the determination of the maximum increase as a percentage of the starting sugar level in blood in the empty-stomach state. After 1-2 weeks, the investigation with a similar sugar load was repeated simultaneously with subcutaneous administration of crystalline insulin at the rate of 0.1-0.2 unit/kg of the body weight right after the administration of the same dose of glucose. After an additional 1-2 weeks, the investigation with the preparation according to the present invention has been carried out. The preparation according to the present invention in the form of plates of a polymer was placed under the tongue by application of the plates to the lower lingual surface at its root or at any other suitable place of the mucous membrane of the mouth cavity. The content of insulin in the plates was varied from 8 to 150 units. After a complete resorption of the plate, maximum within 60 minutes, the volunteer was given a standard dose of glucose per os. The blood examination for sugar has been performed on an empty stomach after 30, 60 and 120 minutes since the glucose administration. The hypoglycemic effect of the test preparations was evaluated by the difference in sugar levels in blood (%) as compared to the control test (without insulin).

patients = conditions: subcutaneous (sometimes intramuscular) injection, majority of patients; cited from earlier work
[2] = tested on: volunteer suffering from diabetes; test: sugar curve after dietic breakfast in volunteer with diabetes in a light form; type: in vivo, human
Protocol: Volunteer (body weight 89 kg) suffered from diabetes in a light form for 10 years. The blood sugar level in the morning on empty stomach was varied from 125 to 190 mg%. On recommendation of the endocrinologist, they were treated with maninyl in a dose of from 0.00125 to 0.0025 g (1/4-1/2 of a tablet) a day. 6 tests were performed including 1 control sugar curve at the background of administration of a dietic breakfast, the 2-nd test--the same curve but with administration, during breakfast, of 0.00125 g of maninyl and 4 tests with the preparation according to the present invention. The doses of insulin in the plates of the preparation of this invention were […]. The duration of resorption of the plates was 9 to 36 minutes. The breakfast was 9-37 minutes thereafter.
The sugar curve obtained after the control test against the background of having a dietic breakfast without hypoglycemic remedies had the following character: the starting blood sugar level was 125 mg%; after 30 minutes since the breakfast--153 mg%; 60 minutes thereafter--155 mg%, 2 hours thereafter--135 mg%, i.e., after 30 and 60 minutes, the blood sugar level was increased by 22 and 24% respectively relative to the initial value.
In a week, the test was repeated; however, during the dietic breakfast, the volunteer was administered 0.00125 g of maninyl (1/4 of a tablet). […] The absolute level of blood sugar was as high as 200 mg%. After 120 minutes, a high blood sugar level was retained--170 mg% which was by 10% higher than the initial value on the same day of investigation.
One week afterwards, the experiment was repeated. The initial level of blood sugar was equal to 190 mg%. The volunteer was administered a plate of the preparation of this invention containing 16 units of insulin (test dose) sublingually; 30 minutes thereafter, the volunteer had breakfast (dietic one). 30 minutes after the breakfast, the blood sugar level was increased up to 200 mg% (by 5% altogether) which was by 17% below the raise in the control test; after 60 minutes--by 26% (240 mg%) which substantially corresponded to the level raise in the control investigation (+2%) and after 120 minutes--reduced by 8% of the initial value (175 mg%) which was by 16% below the level in the control test.

With “crystalline insulin: crystalline insulin administered subcutaneously as comparison” the “sugar level higher than the control value” ([1]; subcutaneous 8 units (volunteer D.), after 30 minutes) was 6%, the “sugar level below the control level” value ([1]; subcutaneous 8 units (volunteer D.), after 60 minutes) was 60% and the “sugar level above the control level” value ([1]; subcutaneous 8 units (volunteer D.), after 120 minutes) was 20%. The “blood sugar level exceeded the control value” ([1]; subcutaneous 8 units (volunteer P.), after 30 minutes) was 16%, the “blood sugar level below the control value” ([1]; subcutaneous 8 units (volunteer P.), after 60 minutes) was 43% and the “blood sugar level below the control” value ([1]; subcutaneous 8 units (volunteer P.), after 120 minutes) was 12%. The “blood sugar level increased as compared to the initial value” (“blood sugar level increased” for short) ([1]; subcutaneous 8 units with 56 g glucose (volunteer D.), after 30 minutes) was 86%, the “blood sugar level increased” value ([1]; subcutaneous 8 units with 56 g glucose (volunteer D.), after 60 minutes) was 40% and the “blood sugar level increased” value ([1]; subcutaneous 8 units with 56 g glucose (volunteer D.), after 120 minutes) was 33%. For the same compound, the “blood sugar level increased” value ([1]; subcutaneous 8 units with 56 g glucose (volunteer P.), after 30 minutes) was 87%, the “blood sugar level lowered” value ([1]; subcutaneous 8 units with 56 g glucose (volunteer P.), after 60 minutes) was 53% and the “blood sugar level relative to the initial level (in words)” value ([1]; subcutaneous 8 units with 56 g glucose (volunteer P.), after 120 minutes) was “returned to the initial level”. The “decrease in the blood sugar level as compared to the control sugar curve” value (from here on “decrease in the blood sugar level”) ([1]; after 30 minutes) was 55%, the “decrease in the blood sugar level” value ([1]; after 60 minutes) was 18% and the “decrease in the blood sugar level” value ([1]; after 120 minutes) was 34%. For the same compound, the “sugar level in blood increased relative to the initial value” ([1]; subcutaneous 16 units with 56 g glucose (after volunteer I.), after 30 minutes) was 31%, the “sugar level in blood increased relative to the initial value” ([1]; subcutaneous 16 units with 56 g glucose (after volunteer I.), after 60 minutes) was 13% and the “sugar level in blood reduced relative to the initial value” ([1]; subcutaneous 16 units with 56 g glucose (after volunteer I.), after 120 minutes) was 7%. The “time to maximum effect” value (patients) was 2 to 5 h.
For `COc1ccc(Cl)cc1C(=O)NCCc1ccc(S(=O)(=O)NC(=O)NC2CCCCC2)cc1` [maninyl], the “raise of the sugar curve, % of the initial value” ([2]; 0.00125 g during dietic breakfast, after 30 and 60 minutes, starting level 155 mg%) was “+29%”, the “blood sugar level higher than the initial value” ([2]; 0.00125 g during dietic breakfast, after 120 minutes) was 10% and the “absolute level of blood sugar (as high as)” value ([2]; 0.00125 g during dietic breakfast, starting level 155 mg%) was 200 mg%. The “hypoglycemic effect (in words)” value ([2]; dose prescribed by the endocrinologist) was “no hypoglycemic effect at all”.
